What was measured:
BI-2493 [1] = compound: T1, C[C@H]1CNCCN1c1nccc(-c2noc3c2CCC[C@@]32CCCc3sc(N)c(C#N)c32)n1 [BI-2493]; settings: 5 days
Protocol: (§1)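 PRISM pooled barcoded cancer cell line viability screen (Broad Institute) with BI-2493 at 8 doses in threefold dilutions from 0.00457 to 10 µmol/L, 5-day treatment; curves fitted per cell line. IC50 is undefined (placeholder) for resistant lines. AUC is capped at 1, and sensitivity is reported as 1 − AUC.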

BI-2493 [2] = compound: T1, BI-2493; assay: 1 - AUC of viability dose-response curve (sensitivity) (fraction); higher = more sensitive; settings: 5 days
Protocol: as §1

| Test System | IC50 of cell viability (BI-2493 [1]) | 1 - AUC of viability dose-response curve (BI-2493 [2]) |
| --- | --- | --- |
| PANC1_PANCREAS | 4.69 µM | 0.128 |
| TM87_SOFT_TISSUE | 5.06 µM | 0.26 |
| RMGI_OVARY | 9.09 µM | 0.0414 |
| HCC1937_BREAST | > 10 µM | 0.143 |
| CAL72_BONE | > 10 µM | 0.176 |
| NCIH520_LUNG | > 10 µM | 0.0795 |
| 8MGBA_CENTRAL_NERVOUS_SYSTEM | 6.11 µM | 0.0867 |
